Each block holds one compound with its values, some of them ahead of it.
Columns and labels:
COLO 205 cells = experiment: MTS cytotoxicity test procedure with COLO 205 cells; assay type: cell-based; conditions: Homo sapiens, 72 h, MTS assay, three days of culture
Procedure: (§1) The MTS assay, which is sold in kit form by Promega (Madison, Wis.; CellTiter 96 AQueous Non-Radioactive Cell Proliferation Assay), is based on the conversion by viable cells, but not by dead cells, of the tetrazolium salt, MTS (3-(4,5-dimethylthiazol-2-yl)-5-(3-carboxymethoxyphenyl)-2-(4-sulphophenyl)-2H-tetrazolium, inner salt), into a water-soluble colored formazan which is detected by spectrophotometry. Compounds are tested at nine concentrations, in order to determine IC50 values. For the test procedure, cells are harvested by trypsinization (or, in the case of non-adherent cells, by simple resuspension), washed, counted and distributed to wells of 96-well flat-bottom microtiter plates at 1000 cells per well in 200 μL of medium. In addition, one row of wells on a separate plate receives cells as above (“time 0” plate). All plates are incubated at 370 in humidified 5% CO2 in air for about 24 hr.
On day 2, compounds for test are diluted and added to wells. Compounds are dissolved in DMSO at 10 mg/mL. For each compound, nine serial 2-fold dilutions are prepared in DMSO. Ten μL of each dilution in DMSO is transferred to 100 μL of medium, mixed well, and then 5 μL of this dilution is transferred in quadruplicate to wells containing cells. The final high concentration of each compound is typically 1-5 μM. Plates are returned to the incubator for three days. At the time of drug addition to the experimental plates, the MTS assay is run on the “time 0” plate. This gives the “time 0 MTS value” which is related to the number of viable cells per well at the time of drug addition.
After three days of culture with test compounds (day 5 overall), the MTS assay is done on all wells of the experimental plates. The absorbance values of the quadruplicate sample wells are averaged and divided by the average of the “time 0” values. The average of control wells without drug, divided by the average “time 0” value, gives the maximal relative increase in MTS color yield due to cell growth during the final three days of culture. The average of control wells with high drug concentration, divided by the “time 0” value, gives the minimal relative color yield for cells that were completely killed. The nine values for each compound are plotted against concentration, and the concentration that produces a relative color yield half way between the maximum and minimum is taken as the IC50 value.
COLO 205 is a human colon carcinoma cell line that is used for comparative testing of the examples of this invention and several reference compounds (Table 1). This line is sensitive to paclitaxel and vincristine.

pure tubulin = experiment: Tubulin polymerization test procedure with pure tubulin; assay type: biochemical, bovine; conditions: pure tubulin without added GTP
Procedure: (§2) Medium is RPMI-1640 with L-glutamine, supplemented with 10% heat-inactivated fetal calf serum, 100 units/mL penicillin, and 100 μg/mL streptomycin (Gibco, Grand Island, N.Y.). Microtubule-associated protein (MAP)-rich tubulin, containing about 70% tubulin and 30% MAPs (#ML113), and highly purified tubulin (>99% pure, #TL238), both from bovine brain, are obtained from Cytoskeleton, Inc., Denver, Colo. PEM buffer (80 mM piperazine-N,N′-bis[2-ethanesulfonic acid], pH 6.9, 1 mM ethylene glycol-bis(β-aminoethyl ether)-N,N,N′,N′-tetraacetic acid, 1 mM magnesium chloride) and guanosine 5′-triphosphate (GTP) are also obtained from Cytoskeleton. [^3H]paclitaxel, specific activity 14.7 Ci/mmol, is purchased from Moravek Biochemicals (Brea, Calif.). [^3H]vinblastine, specific activity 9.60 Ci/mmol and MicroSpin G-50 columns are obtained from Amersham Biosciences (Piscataway, N.J.). […] Other reagents are obtained from Sigma (St. Louis, Mo.).
The procedure with pure tubulin is similar except for the following changes. […] The supernatant after centrifugation is dispensed to a ½-area 96-well plate already containing compounds. Each compound is tested in duplicate at a final concentration of 24.3 μM. The plate reader μs thermostated at 35°.

MAP-rich tubulin = experiment: Tubulin polymerization test procedure with MAP-rich tubulin; assay type: biochemical, bovine; conditions: MAP-rich tubulin with 1 mM GTP, compound 0.3 μM, at 20 min
Procedure: as §2
MAP-rich tubulin is dissolved in ice-cold PEM buffer containing 1 mM GTP (GPEM buffer) at a concentration of 1.3 mg/mL. The solution is centrifuged at top speed in an Eppendorf model 5415C microcentrifuge (Brinkmann Instruments, Westbury, N.Y.) for 10 min at 40 immediately before use. The tubulin solution is added to wells of a ½-area 96-well plate (Costar No. 3696, Corning, Inc., Corning, N.Y.) already containing the compounds of interest. Each compound is tested in duplicate at a final concentration of 0.3 μM in a volume of 110 μL per well. The final DMSO concentration in all wells is 0.3%. Control reactions, which receive compound solvent only, are done in quadruplicate. The plate is put in a SpectraMax Plus plate reader (Molecular Devices Corp. Sunnyvale, Calif.) thermostated at 240 and the absorbance of each well at 340 nm, a measure of the appearance of turbidity due to tubulin polymer formation, is determined every minute for 60 minutes. The absorbance at time 0 for each well is subtracted from each of the subsequent absorbance readings for that well, and then the duplicates are averaged.
In this assay, control reactions with MAP-rich tubulin show an S-shaped absorbance profile characterized by three phases: first, a lag phase during which no change in absorbance occurs; second, a polymerization phase in which absorbance increases; and third, a plateau phase in which absorbance has reached a maximum and little or no further change occurs. Polymerization enhancers such as paclitaxel and docetaxel shorten or eliminate the lag phase, increase the rate of the polymerization phase, and often increase the height of the plateau. […] This has been expressed quantitatively in Table 6 by dividing the mean A340 of each sample at 20 min by the mean A340 of the control at 20 min to give a fold enhancement over control. […]

HL-60/ADR cells = experiment: MTS cytotoxicity test procedure with HL-60/ADR cells; assay type: cell-based, human; conditions: Homo sapiens, HL60/ADR; MTS assay, HL-60/ADR cells, means of 2 independent experiments
Description: (§3) Human cancer cell lines, unless otherwise noted, are obtained from the American Type Culture Collection (Rockville, Md.). The following drug-sensitive parental cell lines, and their derived drug-resistant counterparts, are obtained from the originators as listed: (a) S1 (parental line from a subclone of human colon carcinoma line LS174T) and derived S1-M1-3.2 (herein called S1-M1) which expresses the MXR drug transporter protein, are provided by Dr. L. Greenberger, Wyeth Research (Rabindran, S. K., He, H., Singh, M., Brown, E., Collins, K. I., Annable, T., and Greenberger, L. M. Reversal of a novel multidrug resistance mechanism in human colon carcinoma cells by fumitremorgin C. Cancer Res., 58: 5850-5858,1998); (b) parental HL-60 human promyelocytic leukemia line and derived HL-60/ADR, which expresses the MRP1 drug transporter protein, are provided by Dr. M. Center, University of Kansas (McGrath, T., and Center, M. S. Adriamycin resistance in HL60 cells in the absence of detectable P-glycoprotein. Biochem. Biophys. […] J. Biol. Chem., 261: 7762-7770, 1986) via Dr. L. Greenberger, Wyeth Research.
as §1
(§4) On day 2, compounds for test are diluted and added to wells. Compounds are dissolved in DMSO at 10 mg/mL. For each compound, nine serial 2-fold dilutions are prepared in DMSO. Ten μL of each dilution in DMSO is transferred to 100 μL of medium, mixed well, and then 5 μL of this dilution is transferred in quadruplicate to wells containing cells. […] Plates are returned to the incubator for three days. At the time of drug addition to the experimental plates, the MTS assay is run on the “time 0” plate.
After three days of culture with test compounds (day 5 overall), the MTS assay is done on all wells of the experimental plates. The absorbance values of the quadruplicate sample wells are averaged and divided by the average of the “time 0” values. […] The nine values for each compound are plotted against concentration, and the concentration that produces a relative color yield half way between the maximum and minimum is taken as the IC50 value.
HL-60/ADR cells overexpress the multidrug resistance protein MRP1 which mediates resistance to some chemotherapeutics (Gottesman, M. M., Fojo, T., and Bates, S. E. Multidrug resistance in cancer: role of ATP-dependent transporters. Nature Rev. Cancer, 2: 48-58, 2002). The IC50 values of example 6 of this invention, as well as reference compounds, on HL-60/ADR are compared to values on the sensitive parental HL-60 line.

S1-M1 cells = experiment: MTS cytotoxicity test procedure with S1-M1 cells; assay type: cell-based, human; conditions: Homo sapiens; MTS assay, S1-M1 cells, means of 2 independent experiments
Description: as §3, §1, §4
(§5) After three days of culture with test compounds (day 5 overall), the MTS assay is done on all wells of the experimental plates. The absorbance values of the quadruplicate sample wells are averaged and divided by the average of the “time 0” values. […]

KB-V1 cells = experiment: MTS cytotoxicity test procedure with KB-V1 cells; assay type: cell-based, human; conditions: Homo sapiens, KB-V1; MTS assay, KB VI cells, means of 2 independent experiments
Description: as §3
The MTS assay, which is sold in kit form by Promega (Madison, Wis.; CellTiter 96 AQueous Non-Radioactive Cell Proliferation Assay), is based on the conversion by viable cells, but not by dead cells, of the tetrazolium salt, MTS (3-(4,5-dimethylthiazol-2-yl)-5-(3-carboxymethoxyphenyl)-2-(4-sulphophenyl)-2H-tetrazolium, inner salt), into a water-soluble colored formazan which is detected by spectrophotometry. Compounds are tested at nine concentrations, in order to determine IC50 values. For the test procedure, cells are harvested by trypsinization (or, in the case of non-adherent cells, by simple resuspension), washed, counted and distributed to wells of 96-well flat-bottom microtiter plates at 1000 cells per well in 200 μL of medium. […]
as §5

SMILES: Fc1cc(F)c(-c2c(Cl)nc3nccn3c2C2CCCCCC2)c(F)c1 [Example 5, 7-Chloro-5-cycloheptyl-6-(2,4,6-trifluorophenyl)imidazo[1,2-a]pyrimidine]
- IC50 (COLO 205 cells): 0.207 µM

SMILES: CC(=O)O[C@@]12CO[C@@H]1C[C@H](O)[C@@]1(C)C(=O)[C@H](O)C3=C(C)[C@@H](OC(=O)[C@H](O)[C@@H](NC(=O)OC(C)(C)C)c4ccccc4)C[C@@](O)([C@@H](OC(=O)c4ccccc4)[C@H]21)C3(C)C [Docetaxel, reference compound]
- polymerization of pure tubulin without GTP (in words) (pure tubulin): able to induce polymerization
- A340 Compound / A340 Control (fold enhancement over control) (MAP-rich tubulin): 5.4

SMILES: Fc1cc(F)c(-c2c(Cl)nc3nccn3c2N2CCCCC2)c(F)c1 [Example 2, 7-Chloro-5-piperidin-1-yl-6-(2,4,6-trifluorophenyl)imidazo[1,2-a]pyrimidine]
- IC50 (COLO 205 cells): 0.396 µM

SMILES: COc1cccc2c1C(=O)c1c(O)c3c(c(O)c1C2=O)C[C@@](O)(C(=O)CO)C[C@@H]3O[C@H]1C[C@H](N)[C@H](O)[C@H](C)O1 [Doxorubicin, reference compound]
- IC50 (HL-60/ADR cells): 2.08 µM
- IC50 (S1-M1 cells): 2.52 µM

- melting point: 155 to 157 °C
SMILES: Fc1cc(F)c(-c2c(Cl)nc3nccn3c2NCC(F)(F)F)c(F)c1 [Example 3, 7-chloro-N-(2,2,2-trifluoroethyl)-6-(2,4,6-trifluorophenyl)imidazo[1,2-a]pyrimidin-5-amine]
- IC50 (COLO 205 cells): 0.742 µM

SMILES: O=C1c2c(O)ccc(O)c2C(=O)c2c(NCCNCCO)ccc(NCCNCCO)c21 [Mitoxantrone, reference compound]
- IC50 (HL-60/ADR cells): 0.161 µM
- IC50 (KB-V1 cells): 1.93 µM

- melting point: 106 to 108 °C
SMILES: Fc1cc(F)c(-c2c(Cl)nc3nccn3c2N2CCCCCC2)c(F)c1 [Example 1, 5-azepan-1-yl-7-chloro-6-(2,4,6-trifluorophenyl)imidazo[1,2-a]pyrimidine]
- IC50 (COLO 205 cells): 0.259 µM
